The values that follow come from patent publication US20030211078A1, “Pseudo-antibody constructs” (priority 2001, published 2003).

For data set [1] the following is noted: cited from earlier work.
The subject of data set [2] is platelet aggregation (GPIIb/IIIa receptors on platelets). In words: inhibition of platelet aggregation, in vitro activity (FIG. 1, FIG. 2). It is filed as cell-based. As to conditions: for binding activity / in vitro activity (inhibition of platelet aggregation) compared with unmodified antibody fragment ReoPro: FIG. 2; for in vitro activity (inhibition of platelet aggregation) compared with unmodified antibody fragment ReoPro: versus ReoPro; for in vitro activity (inhibition of platelet aggregation) compared with unmodified 7E3 Fab′: FIG. 1, versus unmodified Fab. An excerpt:
FIG. 1 depicts a comparison of the inhibition of platelet aggregation by two pseudo-antibodies (7E3 Fab′ (PEG3.4K-DSPE)2 and 7E3 Fab′ (PEG3.4K-PAL)2) and one unmodified antibody fragment (7E3 Fab).
FIG. 2 depicts a comparison of the inhibition of platelet aggregation by two pseudo-antibodies (7E3 Fab′ (PEG5K)2 and 7E3 Fab′ (PEG10K)2) and one unmodified antibody fragment (ReoPro®).
The organic moieties portions of these constructs may also be dimerized, such that n=2. For example, the antibody fragment 7E3 Fab′ was used to construct the pseudo-antibody 7E3 Fab′ (PEG3.4k-DSPE)2 and the pseudo-antibody 7E3 Fab′ (PEG3.4.k-PAL)2 and the in vitro activities were compared with unmodified 7E3 Fab′.
Additionally, 7E3 Fab′ was used to construct the pseudo-antibodies 7E3 Fab′ (PEG5k)2 and 7E3 Fab′ (PEG10k)2 and the in vitro activites were compared with the unmodified antibody fragment ReoPro®.

Data set [3] in a line: in vivo pharmacokinetic analysis, circulating half-life / clearance in mice (FIG. 3). As to conditions: equimolar doses. Here is the method: FIG. 3 depicts a comparison of in vivo circulating half-life, in mice, of two pseudo-antibodies, 7E3 Fab′ (PEG3.4K-DSPE)2 and 7E3 Fab′ (PEG5K)2.
For in vivo pharmacokinetic analysis, c7E3 Fab′ (PEG3.4k-DSPE)2 and c7E3 Fab′ (PEG5k) were prepared, and given to mice in equimolar doses. The results are depicted in FIG. 3.

For the next data set, the target named is T1, MMP 2 (Homo sapiens, UniProt P08253).
T1 sequence (P08253 110-660): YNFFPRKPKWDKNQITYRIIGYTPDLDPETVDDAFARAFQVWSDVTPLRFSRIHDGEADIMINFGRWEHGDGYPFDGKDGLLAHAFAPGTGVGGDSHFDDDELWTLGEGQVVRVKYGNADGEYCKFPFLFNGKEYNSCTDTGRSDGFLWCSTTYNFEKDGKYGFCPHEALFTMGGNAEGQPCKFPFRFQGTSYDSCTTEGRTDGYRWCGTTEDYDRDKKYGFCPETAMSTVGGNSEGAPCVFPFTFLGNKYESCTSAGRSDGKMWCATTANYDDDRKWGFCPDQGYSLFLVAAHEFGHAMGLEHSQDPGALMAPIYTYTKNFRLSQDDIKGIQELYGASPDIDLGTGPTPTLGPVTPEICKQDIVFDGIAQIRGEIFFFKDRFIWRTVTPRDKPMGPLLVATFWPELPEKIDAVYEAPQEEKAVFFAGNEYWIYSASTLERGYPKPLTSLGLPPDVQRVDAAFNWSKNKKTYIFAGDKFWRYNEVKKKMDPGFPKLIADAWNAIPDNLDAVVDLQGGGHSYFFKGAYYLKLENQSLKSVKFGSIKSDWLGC
As to conditions: cited from earlier work.

A further data set concerns the target MMP 9 (Homo sapiens, UniProt P14780). As to conditions: cited from earlier work.
A further data set has as its target MMP 3 (Homo sapiens, UniProt P08254). As to conditions: cited from earlier work.
The test system of the next data set is adjuvant arthritic rat. As to conditions: bone mineral density, MRI, micro-CT, histology; cited from earlier work.

Chain of MMP 9 (P14780 94-707): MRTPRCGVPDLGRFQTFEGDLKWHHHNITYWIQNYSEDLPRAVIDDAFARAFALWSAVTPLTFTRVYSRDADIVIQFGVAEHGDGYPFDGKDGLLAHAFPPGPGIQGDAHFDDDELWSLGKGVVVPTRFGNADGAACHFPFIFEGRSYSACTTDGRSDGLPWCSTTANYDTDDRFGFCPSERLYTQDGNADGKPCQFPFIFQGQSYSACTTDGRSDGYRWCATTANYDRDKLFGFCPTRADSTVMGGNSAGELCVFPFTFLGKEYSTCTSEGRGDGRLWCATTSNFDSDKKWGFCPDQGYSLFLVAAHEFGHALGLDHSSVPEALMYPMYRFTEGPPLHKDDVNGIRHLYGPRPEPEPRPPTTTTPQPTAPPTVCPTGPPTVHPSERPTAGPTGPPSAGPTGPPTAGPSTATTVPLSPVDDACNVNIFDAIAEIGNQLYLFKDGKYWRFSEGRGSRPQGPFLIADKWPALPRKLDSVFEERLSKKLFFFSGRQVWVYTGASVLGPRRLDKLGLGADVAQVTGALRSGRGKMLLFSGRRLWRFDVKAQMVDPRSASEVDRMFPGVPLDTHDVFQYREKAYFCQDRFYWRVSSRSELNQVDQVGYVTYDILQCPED
Chain of MMP 3 (P08254 100-477): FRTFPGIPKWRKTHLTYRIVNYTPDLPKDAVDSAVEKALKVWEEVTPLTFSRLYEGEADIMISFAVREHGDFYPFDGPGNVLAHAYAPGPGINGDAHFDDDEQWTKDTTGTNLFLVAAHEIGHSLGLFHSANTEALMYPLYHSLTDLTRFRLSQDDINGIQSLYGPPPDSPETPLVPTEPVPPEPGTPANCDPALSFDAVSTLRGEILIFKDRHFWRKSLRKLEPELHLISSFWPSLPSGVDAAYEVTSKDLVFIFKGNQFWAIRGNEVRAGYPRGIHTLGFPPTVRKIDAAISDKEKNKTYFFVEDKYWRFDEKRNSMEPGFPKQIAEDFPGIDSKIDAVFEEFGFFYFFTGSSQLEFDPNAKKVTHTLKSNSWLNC

Consider `CCCCS(=O)(=O)N[C@@H](Cc1ccc(OCCCCC2CCNCC2)cc1)C(=O)O` [Tirofiban], for which the “in vivo circulatory half-life” value in data set [1] is given as “approximately two”.
Turning to “7E3 Fab′ (PEG5k)2: pseudo-antibody: 7E3 Fab′ fragment with two PEG5k chains”, in data set [2], the binding activity result is reported as “binding activity was clearly retained” and the “in vitro activity (inhibition of platelet aggregation) compared with unmodified antibody fragment ReoPro” value is given as “somewhat lower in vitro activity than the unmodified antibody fragment”.
As to “c7E3 Fab′ (PEG5k): pseudo-antibody of c7E3 Fab′ with PEG5k, given to mice; probably the same as 7E3 Fab′ (PEG5K)2 of FIG. 3”, the rate of clearance result in data set [3] is recorded as “cleared faster”.
As to `O=C(C[C@H](CSc1ccccc1)C(=O)O)c1ccc(-c2ccc(Cl)cc2)cc1` [BAY12-9566], the “inhibitory activity against MMP 2” value at MMP 2 is “nM inhibitory activity”. Further, the “inhibitory activity against MMP 9” value at MMP 9 is recorded as “nM inhibitory activity”. Also, the “inhibitory activity against MMP 3” value at MMP 3 is recorded as “nM inhibitory activity”.
For `COc1nccc(-c2c(-c3ccc(F)cc3)ncn2C2CCNCC2)n1` [SB 242235], in the data set on adjuvant arthritic rat, the “activity in the adjuvant arthritic rat” value is “inhibits inflammation and has significant joint-protective effects”.
As to “7E3 Fab′ (PEG3.4k-DSPE)2: pseudo-antibody: 7E3 Fab′ fragment with two PEG3.4k chains each ending in diesteroylphosphatidyl-ethanolamine (DSPE)”, in data set [3], the rate of clearance result is “slower rate of clearance”. In addition, the “in vitro activity (inhibition of platelet aggregation) compared with unmodified 7E3 Fab′” value in data set [2] was “similar”.
For “7E3 Fab′ (PEG10k)2: pseudo-antibody: 7E3 Fab′ fragment with two PEG10k chains”, in data set [2], the binding activity result is “binding activity was clearly retained” and the “in vitro activity (inhibition of platelet aggregation) compared with unmodified antibody fragment ReoPro” value was “somewhat lower in vitro activity than the unmodified antibody fragment”.

B1: 7E3 Fab′ (PEG3.4.k-PAL)2: pseudo-antibody: 7E3 Fab′ fragment with two PEG3.4k chains each ending in palmatoyl (PAL) (conjugate, chains of the INN, looked up)
VH: EVQLQQSGTVLARPGASVKMSCEASGYTFTNYWMHWVKQRPGQGLEWIGAIYPGNSDTSYIQKFKGKAKLTAVTSTTSVYMELSSLTNEDSAVYYCTLYDGYYVFAYWGQGTLVTVSA
VL: EIVLTQSPVTLSVTPGDSVSLSCRASRDISNNLHWFQQTSHESPRLLIKYASQSMSGIPSRFSGSGSGTDFTLSINSVETEDFGMYFCQQTNSWPYTFGGGTKLEIK
modifications: Fab' two PEG3.4k-palmitoyl chains
As for B1, the “in vitro activity (inhibition of platelet aggregation) compared with unmodified 7E3 Fab′” value in data set [2] is “similar”.
